Laboratory results: patent US8192962B2, “Processes for detecting toxic substances” (Daikin Industries, Ltd., priority 2001, dated 2012)

System: Mitochondria-located protein genes
Experiment: DNA chip mRNA expression in yeast, mitochondria-located protein genes (Table 2)
Type: cell-based, Saccharomyces cerevisiae S288C
Conditions: cells incubated two hours with the chemical substance
How it was run: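 S. cerevisiae S288C grown at 25° C. in YPD to log phase, then exposed 2 h to a toxicant at a growth-inhibiting, non-lethal concentration; untreated cells as control. Poly(A) mRNA reverse-transcribed with Cy3-dUTP or Cy5-dUTP, hybridized >12 h at 65° C. to whole-genome yeast DNA chip; value = fluorescence ratio treated/untreated.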

O=[N+]([O-])c1cc[n+]([O-])c2ccccc12 [(5), 4-nitroquinolin-N-oxide]
The level of expressed mRNA in the presence of chemical substance/The level of expressed mRNA in the absence of chemical substance (yeast gene YAL039C): 1.1
The level of expressed mRNA in the presence of chemical substance/The level of expressed mRNA in the absence of chemical substance (yeast gene YBL022C): 1.2
The level of expressed mRNA in the presence of chemical substance/The level of expressed mRNA in the absence of chemical substance (yeast gene YBL030C): 0.7
The level of expressed mRNA in the presence of chemical substance/The level of expressed mRNA in the absence of chemical substance (yeast gene YBL038W): 0.9
The level of expressed mRNA in the presence of chemical substance/The level of expressed mRNA in the absence of chemical substance (yeast gene YBL099W): 1.0
The level of expressed mRNA in the presence of chemical substance/The level of expressed mRNA in the absence of chemical substance (yeast gene YBR003W): 0.7
The level of expressed mRNA in the presence of chemical substance/The level of expressed mRNA in the absence of chemical substance (yeast gene YBR044C): 1.4
The level of expressed mRNA in the presence of chemical substance/The level of expressed mRNA in the absence of chemical substance (yeast gene YBR091C): 1.1
The level of expressed mRNA in the presence of chemical substance/The level of expressed mRNA in the absence of chemical substance (yeast gene YBR122C): 1.5
The level of expressed mRNA in the presence of chemical substance/The level of expressed mRNA in the absence of chemical substance (yeast gene YBR185C): 0.8
The level of expressed mRNA in the presence of chemical substance/The level of expressed mRNA in the absence of chemical substance (yeast gene YBR221C): 1.3
The level of expressed mRNA in the presence of chemical substance/The level of expressed mRNA in the absence of chemical substance (yeast gene YBR251W): 1.3
The level of expressed mRNA in the presence of chemical substance/The level of expressed mRNA in the absence of chemical substance (yeast gene YBR282W): 1.0
The level of expressed mRNA in the presence of chemical substance/The level of expressed mRNA in the absence of chemical substance (yeast gene YCL057W): 1.1
The level of expressed mRNA in the presence of chemical substance/The level of expressed mRNA in the absence of chemical substance (yeast gene YCR046C): 1.0
The level of expressed mRNA in the presence of chemical substance/The level of expressed mRNA in the absence of chemical substance (yeast gene YCR083W): 1.6
The level of expressed mRNA in the presence of chemical substance/The level of expressed mRNA in the absence of chemical substance (yeast gene YDL067C): 2.0
The level of expressed mRNA in the presence of chemical substance/The level of expressed mRNA in the absence of chemical substance (yeast gene YDL181W): 1.7
The level of expressed mRNA in the presence of chemical substance/The level of expressed mRNA in the absence of chemical substance (yeast gene YDL198C): 0.7
The level of expressed mRNA in the presence of chemical substance/The level of expressed mRNA in the absence of chemical substance (yeast gene YDR079W): 1.2
The level of expressed mRNA in the presence of chemical substance/The level of expressed mRNA in the absence of chemical substance (yeast gene YDR178W): 0.9
The level of expressed mRNA in the presence of chemical substance/The level of expressed mRNA in the absence of chemical substance (yeast gene YDR231C): 1.1
The level of expressed mRNA in the presence of chemical substance/The level of expressed mRNA in the absence of chemical substance (yeast gene YDR258C): 1.3
The level of expressed mRNA in the presence of chemical substance/The level of expressed mRNA in the absence of chemical substance (yeast gene YDR298C): 1.3
The level of expressed mRNA in the presence of chemical substance/The level of expressed mRNA in the absence of chemical substance (yeast gene YDR347W): 0.8
The level of expressed mRNA in the presence of chemical substance/The level of expressed mRNA in the absence of chemical substance (yeast gene YDR377W): 1.9
The level of expressed mRNA in the presence of chemical substance/The level of expressed mRNA in the absence of chemical substance (yeast gene YDR529C): 1.2
The level of expressed mRNA in the presence of chemical substance/The level of expressed mRNA in the absence of chemical substance (yeast gene YEL024W): 1.3
The level of expressed mRNA in the presence of chemical substance/The level of expressed mRNA in the absence of chemical substance (yeast gene YEL039C): 0.9
The level of expressed mRNA in the presence of chemical substance/The level of expressed mRNA in the absence of chemical substance (yeast gene YER178W): 0.7
The level of expressed mRNA in the presence of chemical substance/The level of expressed mRNA in the absence of chemical substance (yeast gene YFL016C): 1.3
The level of expressed mRNA in the presence of chemical substance/The level of expressed mRNA in the absence of chemical substance (yeast gene YGL018C): 1.1
The level of expressed mRNA in the presence of chemical substance/The level of expressed mRNA in the absence of chemical substance (yeast gene YGL187C): 1.3
The level of expressed mRNA in the presence of chemical substance/The level of expressed mRNA in the absence of chemical substance (yeast gene YGL191W): 0.9
The level of expressed mRNA in the presence of chemical substance/The level of expressed mRNA in the absence of chemical substance (yeast gene YGR008C): 0.9
The level of expressed mRNA in the presence of chemical substance/The level of expressed mRNA in the absence of chemical substance (yeast gene YGR028W): 0.9
The level of expressed mRNA in the presence of chemical substance/The level of expressed mRNA in the absence of chemical substance (yeast gene YGR062C): 0.7
The level of expressed mRNA in the presence of chemical substance/The level of expressed mRNA in the absence of chemical substance (yeast gene YGR076C): 0.9
The level of expressed mRNA in the presence of chemical substance/The level of expressed mRNA in the absence of chemical substance (yeast gene YGR082W): 0.9
The level of expressed mRNA in the presence of chemical substance/The level of expressed mRNA in the absence of chemical substance (yeast gene YGR174C): 1.0
The level of expressed mRNA in the presence of chemical substance/The level of expressed mRNA in the absence of chemical substance (yeast gene YGR244C): 0.8
The level of expressed mRNA in the presence of chemical substance/The level of expressed mRNA in the absence of chemical substance (yeast gene YHR008C): 0.6
The level of expressed mRNA in the presence of chemical substance/The level of expressed mRNA in the absence of chemical substance (yeast gene YIL155C): 1.3
The level of expressed mRNA in the presence of chemical substance/The level of expressed mRNA in the absence of chemical substance (yeast gene YJL096W): 1.9
The level of expressed mRNA in the presence of chemical substance/The level of expressed mRNA in the absence of chemical substance (yeast gene YJL102W): 1.3
The level of expressed mRNA in the presence of chemical substance/The level of expressed mRNA in the absence of chemical substance (yeast gene YJL133W): 0.9
The level of expressed mRNA in the presence of chemical substance/The level of expressed mRNA in the absence of chemical substance (yeast gene YJL166W): 1.6
The level of expressed mRNA in the presence of chemical substance/The level of expressed mRNA in the absence of chemical substance (yeast gene YJL180C): 1.5
The level of expressed mRNA in the presence of chemical substance/The level of expressed mRNA in the absence of chemical substance (yeast gene YJR045C): 0.5
The level of expressed mRNA in the presence of chemical substance/The level of expressed mRNA in the absence of chemical substance (yeast gene YJR077C): 0.9
